Active and inactive are the calls of the source.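 Rule for the calls: active = IC50 below three times the IC50 of the reference antileishmanial control drug; inactive = the rest.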
Tested on: L. donovani axenic amastigotes, Alamar blue, 72 h
Experiment: L. donovani amastigote growth inhibition, dose response, axenic amastigotes, plate reader, cherry pick (AID 651891)

## C[C@@H]1CN([C@@H](C)CO)C(=O)c2cccc(NC(=O)c3ccncc3)c2O[C@H]1CN(C)Cc1ccc(Oc2ccccc2)cc1
  IC50: 21.2 µM (inactive)

From PubChem BioAssay AID651891 (Broad Institute, 2012)
